Assay results taken from patent US20190359653A1, “SELECTIVE PEPTIDE INHIBITORS OF FRIZZLED” (Genentech, Inc., priority 2016, published 2019).
Peptide text beside a SMILES is read from it. * marks the point of attachment. 5FAM = O=C1OC2(c3ccc(O)cc3Oc3cc(O)ccc32)c2ccc(C(=O)*)cc21

Tests used:
[1] = test system: FZD7, FZD4, 5 or 6 receptors stably expressed in HEK293 cells; assay: flow cytometry of cells stably expressing gD-FZD; format: binding; conditions: peptide 12.5 μM
Protocol: Cell lines stably expressing gD-FZD were grown to ˜80% confluence in DMEM:F12 (50:50) media supplemented with 10% FBS (cat. no. 1500-100; Seradigm), 1× GlutMAX (cat. no. 35050-061; Gibco) and G418 (200 μg/mL; cat. no. A1720; Sigma), released with 0.05% trypsin/EDTA in PBS (cat. no. 15400-054; Gibco), collected on ice and buffer exchanged into ice cold FACS buffer (0.5% BSA and 0.05% NaAz in PBS). 100,000 cells/well were plated into an ice cold U-bottomed plate (cat. no. 3799; Costar) and cells pelleted by centrifugation at 1200 rpm for 3 min. […] Data was collected with FACSDiva (BD; version 8.0.1) and analyzed using FLowJo (FlowJo, LLC; v10.1).
(§1) Selective targeting of the FZD7 receptor subclass was also observed chromatographically. […] See FIGS. 4A and 4B, which provide representative fluorescence traces of 1 μM 5FAM-Fz7-21 and 1 μM 5FAM-Fz7-21S, respectively, incubated with various FZD CRD-Fc proteins (250 nM) overnight at 4° C. prior to analysis by FSEC. […] In FIG. 24A, molecular weight (MW) standards analyzed by UV absorption were plotted as a function of elution volume (Ve) over void volume (Vo). […] Measured values represent the mean±standard deviation (SD) of three independent experiments. […] Binding to recombinant FZD3 and 6 CRDs could not be assessed due to challenges with the expression of these proteins.

FZD CRD-Fc proteins = assay: fluorescence size-exclusion chromatography (FSEC) with FZD CRD-Fc proteins; format: binding; conditions: 1 μM peptide, 250 nM FZD CRD-Fc, overnight at 4° C.; FZD1, FZD2 and FZD7 CRD-Fc
Protocol: (§2) Fluorescence size-exclusion chromatography (FSEC) experiments were run using an AKTA FPLC system (General Electric Company) with UNICORN software package (version 5.31). Samples were resolved using a SEC3000 or SEC2000 (Phenomenex; Torrence, Calif.) column at 0.5 mL/min in phosphate buffer. Fluorescence was monitored using a FP-2020 Plus fluorescence detector (Jasco Analytical Instruments, Easton, Md.) in normal mode (excitation/emission, […]; gain=100; STD=32). All samples were prepared with a final DMSO concentration of 1% and incubated overnight at 4° C. prior to sample separation. FZD CRD-Fc samples were kept at ˜250 nM in the presence of excess 5FAM labeled peptide (1 μM). […]
as §1, with “proteins. […]” for “proteins.”

[2] = test system: human sFRP1, sFRP2, sFRP3, sFRP4, or sFRP5; assay: FSEC with secreted Frizzled-related proteins; format: binding; conditions: sFRP ~250 nM, peptide 10 μM
Protocol: as §2, with “μM). Human secreted Frizzled-related proteins were maintained at ˜250 nM in the presence of excess 5FAM-labeled peptide (10 μM).” for “μM).”
For FIGS. 4C and 5C, values represent the mean±s.e.m. of three independent experiments. […] Samples were resolved using a SEC3000 column (Phenomenex; Torrence, Calif.) at 0.5 mL/min in phosphate buffer saline (PBS) and fluorescence was monitored with an FP-2020 Plus fluorescence detector (Jasco Analytical Instruments, Easton, Md.) using normal mode (excitation/emission […]); gain=100; STD=32. […] Molecular weights were determined by standards (BioRad catalogue number, 151-1901) run prior to sample runs.

FZD CRD-Fc = assay: binding of 5FAM peptides to the FZD CRD-Fc panel
Protocol: Control experiments using 5FAM-Fz7-21S were performed in parallel. 5FAM-Fz7-21 or 5FAM-Fz721S was incubated with each of the aforementioned FZD CRD-Fcs overnight at 4° C. in PBS and resolved via SEC.
In FIGS. 3A-3I, 5FAM-Fz7-21 or 5FAM-Fz7-21S (50 nM in PBS) was incubated with increasing concentration of FZD CRD-Fc (2-fold serial dilutions), and fluorescence intensity was measured using either a Monolith NT.115 or NT.115Pico instrument (NanoTemper Technologies). EC50 values represent the 95% confidence interval of at least three independent experiments, excepting hFZD1 CRD-Fc+5FAM-Fz7-21S, which was done twice. EC50 ovalues were calculated with Prism Graphpad using the Log(agonist) vs. response [variable slope (four parameters) function: Y=Bottom+(Top-Bottom)/(1+10^((Log EC−X)*HillSlope))]. Plotted values represent the mean±s.e.m.

**Q.** `CSCC[C@H](NC(=O)[C@@H](NC(=O)[C@H](Cc1c[nH]cn1)NC(=O)[C@H](CS)NC(=O)[C@H](Cc1c[nH]c2ccccc12)NC(=O)[C@H](Cc1ccccc1)NC(=O)[C@H](CCC(=O)O)NC(=O)[C@H](CC(C)C)NC(=O)[C@H](CC(=O)O)NC(=O)[C@H](CC(=O)O)NC(=O)[C@H](CO)NC(=O)[C@@H]1CCCN1C(=O)[C@H](CC(C)C)NC(=O)c1ccc2c(c1)C(=O)OC21c2ccc(O)cc2Oc2cc(O)ccc21)C(C)C)C(=O)N[C@@H](Cc1ccc(O)cc1)C(N)=O` [5FAM-Fz7-21] (5FAM-LPSDDLEFWCHVMY-NH2; N-terminus and C-terminus assumed) was tested. Which “binding by flow cytometry analysis” value [1] did it give?
**A.** predominant binding to FZD7 with minimal binding to FZD4, 5 or 6 receptors

**Q.** What about the “complex with FZD CRD-Fc resolved by FSEC” value (FZD CRD-Fc proteins) of the same compound?
**A.** could be resolved

**Q.** What about the “binding to sFRPs by FSEC” value [2] of the same compound?
**A.** not found to bind

**Q.** What about the “binding” value (FZD CRD-Fc; FZD5, FZD8, FZD9 and FZD10 CRDs) of the same compound?
**A.** little to no binding

**Q.** What about the EC50 (FZD CRD-Fc; hFZD1 CRD-Fc, hFZD2 CRD-Fc, hFZD7 CRD-Fc, and mFZD7 CRD-Fc, read-out: affinities) of the same compound?
**A.** 39 to 116 nM
